Assays:
Type in all cases: cell-based, Human
[1] = system: HT 29 (Colon adenocarcinoma); assay: In vitro cytotoxicity, microculture tetrazolium (MTT) assay, HT29; settings: further 48 h, Table 1
Description: (§1) The microculture tetrazolium assay was used to test in vitro cytotoxicity. This assay is described in Plumb, J. A. et al., 1989 Cancer Research 49, 4435-4440, which is herein incorporated by reference. The cytotoxicity of compounds towards tumor cells is measured in vitro using the assay. This assay method is based upon the ability of live, but not dead cells to reduce the yellow water soluble dye 3-(4,5-dimethylthiazol-2-yl)-2,5-diphenyltetrazolium bromide (MTT) to its water insoluble purple formazan product.
(§2) Human Tumor Cell lines, used were:
HT 29 (Colon adenocarcinoma) ATCC catalog #HTB-38.
(§3) The cells were maintained in exponential growth in culture in minimal essential media (MEM) supplemented with non-essential amino acids, and containing 15% (v/v) fetal. bovine serum, 5 mM L-glutamine, 1 mM sodium pyruvate, and 0.1 U/ml insulin. All cell lines were grown at 37° C. in an atmosphere of 5% CO2 in air.
(§4) MTT: 2 mg/ml in phosphate buffered saline (stable at 4° C. in dark for 1 week).
(§5) Sorensen's buffer: 0.1M glycine/NaOH, pH 10.5, containing 0.1M NaCl.
(§6) Test compounds: 20 mM in DMSO and diluted to a final concentration of 200 μM in culture medium before use.
(§7) For each assay, doxorubicin is included as an inter-assay standard. This allows us to monitor the behaviour of the assay in general, and in particular, to check that the SKVLB line has maintained its resistant phenotype.
(§8) The assays are carried out in 96-well (8 well×12 well) microtiter plates. Serial dilutions of the compound are tested along the length of the plate. A 1:3 serial dilution of compound in culture medium covers a concentration range from 100 μM to 1.7 nM. Each concentration of compound is tested in quadruplet, allowing two compounds to be tested per plate. Wells containing no cells (blank) and cells with no test compound (control) are included on each plate.
(§9) Cells are plated out in 100 μl of culture medium in the microtiter plates at a density of around 1,500-4,000 cells per well. The plates are incubated overnight to allow the cells to become adherent after which the test compound is added (100 μl of appropriate dilution per well). The cells are incubated with test compound at 37° C. for 48 h after which the compound is replaced with fresh medium. After a further 48 h incubation at 37° C., 50 μl of MTT solution (2 mg/ml) is added to each well. The plates are incubated in the dark for 4 h at 37° C. after which the medium is removed. The MTT formazan product is extracted from the cells by the addition of 200 μl DMSO followed by 50 μl of Sorensen's buffer. The plates are shaken briefly and the absorbance at 570 nm is read using a Molecular Devices UV max plate reader. Curves are fit to the MTT assay data using a four parameter logistic equation, and the data are normalized to fit a 0% to 100% survival scale.

[2] = system: SKVLB (Ovarian; multidrug resistant); assay: In vitro cytotoxicity, microculture tetrazolium (MTT) assay, SKVLB; settings: SKVLB multidrug resistant ovarian, 48 h with compound, further 48 h, MTT, Table 1
Description: as §1, §2
SKVLB (Ovarian; multidrug resistant)--Dr. V. Ling, Ontario Cancer Institute.
as §3, §4, §5, §6, §7, §8, §9

[3] = system: SKOV3 (Ovarian adenocarcinoma); assay: In vitro cytotoxicity, microculture tetrazolium (MTT) assay, SKOV3; settings: SKOV3 ovarian adenocarcinoma, 48 h with compound, further 48 h, MTT, Table 1
Description: as §1, §2
SKOV3 (Ovarian adenocarcinoma)--provided by Dr. V. Ling, Ontario Cancer Institute.
as §3, §4, §5, §6, §7, §8, §9

[4] = system: T47D (Ductal carcinoma of breast); assay: In vitro cytotoxicity, microculture tetrazolium (MTT) assay, T47D; settings: 48 h with compound, further 48 h, Table 1
Description: as §1, §2
T47D (Ductal carcinoma of breast)--ATCC catalog #HTB-133.
as §3, §4, §5, §6, §7, §8, §9

[5] = system: Lox (Melanoma); assay: In vitro cytotoxicity, microculture tetrazolium (MTT) assay, LOX; settings: Homo sapiens, 48 h with compound, further 48 h, Table 1
Description: as §1, §2
Lox (Melanoma)--Southern Research Institute.
as §3, §4, §5, §6, §7, §8, §9

[6] = Homo sapiens, HT-29, 48 h with compound

Row | SMILES | IC50 [1, 6] | IC50 ([2]; Homo sapiens) | IC50 ([3]; Homo sapiens, SK-OV-3) | IC50 ([4]; Homo sapiens) | IC50 [5] | IC50 [4] | IC50 [2] | IC50 ([1]; 48 h with compound) | IC50 [3]
1 | CC(=O)[C@]1(C)CC2=C(C(=O)c3ccccc3C2=O)[C@H](O[C@H]2C[C@H](NC(=O)C(F)(F)F)[C@H](O)[C@H](C)O2)O1 [BCH2090, (1'S,1S,3S)-1-(3'-trifluoroacetamido-2',3',6'-trideoxy-lyxo-L-hexopyranose)-3-acetyl-3-methyl-3,4,5,10-tetrahydro-5,10-dioxo-1H-naphtho-[2,3-c]pyran] | 10400 nM | 36 µM | 11000 nM |  |  |  |  |  | 
2 | CO[C@@H]1O[C@H](C(=O)O)CC2=C1C(=O)c1ccccc1C2=O (relative stereo) [BCH2119, (1,3-cis)-1-methoxy-3-carboxyl-5,10-dioxo-3,4,5,10-tetrahydro-1H-naphtho-[2,3-c]-pyran] | > 100000 nM | > 100 µM | > 100000 nM | > 100000 nM |  |  |  |  | 
3 | C[C@@H]1O[C@@H](OC2OC(C#N)CC3=C2C(=O)c2ccccc2C3=O)C[C@H](NC(=O)C(F)(F)F)[C@@H]1O (mixture of isomers) [BCH1688, (1'-S, 1-R, 3-S) and (1'-S, 1-S, 3-R)-3-cyano-1-[2',3',6'-trideoxy-3'-trifluoroacetamido-4'-hydroxy-L-lyxohexopyranose)-5,10-dioxo-3,4,5,10-tetrahydronaphtho-[2,3C]pyran-3-yl] | 1350 nM | 2.77 µM | 634 nM |  | 402 nM |  |  |  | 
4 | COC1OC(C(=O)NCCN2CCOCC2)=CC2=C1C(=O)c1ccccc1C2=O (stereo not shown) [BCH2170, 1-methoxy-3-[2-(N-morpholino)ethylaminocarbonyl]-5,10-dioxo-5,10-dihydro-1H-naphtho-[2,3-c]-pyran] | 244 nM | 0.394 µM | 259 nM |  |  |  |  |  | 
5 | CC(=O)C1CC2=C(C(=O)c3ccccc3C2=O)C(OC2CC(NC(=O)C(F)(F)F)C(O)C(C)O2)O1 [BCH2145, (1S, 3R)-1-(2',3',6'-trideoxy-3'-trifluoroacetamido-4'-hydroxy-1,5-dihydro-L-lyxohexopyranose-2-yl)-5,10-dioxo-3,4,5,10-tetrahydro-1H-naphtho-[2,3-c] pyran] |  |  |  |  |  | 1780 nM |  |  | 
6 | COC(=O)[C@@H]1CC2=C(C(=O)c3ccccc3C2=O)[C@@H](O[C@H]2C[C@H](NC(=O)C(F)(F)F)[C@H](O)[C@H](C)O2)O1 [BCH2128, (1'S, 1R, 3S)-5,10-dioxo-3-methoxycarbonyl-1-(2',3',6'-trideoxy-3'-trifluoroacetamido-L-lyxohexopyranose)-3,4,5,10-tetrahydro-1H-naphtho-[2,3-c]-pyrano] | 1600 nM | 5.8 µM | 1700 nM |  | 1400 nM |  |  |  | 
7 | CC[C@H]1CC2=C(C(=O)c3ccccc3C2=O)[C@H](NC(C)=O)O1 (relative stereo) [BCH2027, Trans-5,10-dioxo-1-acetamido-3-ethyl-3,4,5,10-tetrahydro-1H-naphtho-[2,3-c]-pyran] | 15400 nM | 29 µM | 7010 nM |  |  |  |  |  | 
8 | COC[C@@H]1CC2=C(C(=O)c3ccccc3C2=O)[C@@H](O[C@H]2C[C@H](NC(=O)C(F)(F)F)[C@H](O)[C@H](C)O2)O1 [BCH1691, (1'S, 1R, 3S)-5,10-dioxo-3-methoxymethyl-1-(2',3',6'-trideoxy-3'-trifluoroacetamido-L-lyxohexopyranose)-3,4,5,10-tetrahydro-1H-naphtho-[2,3-c]-pyran] | 7160 nM | 18.5 µM | 8830 nM |  | 4490 nM |  |  |  | 
9 | COC(=O)C1(C(=O)OC)CC2=C(CO1)C(=O)c1ccccc1C2=O [BCH1665, 3,3-bis-(methoxycarbonyl)-5,10-dioxo-3,4,5,10-tetrahydro-1H-naphtho-[2,3-c]-pyran] | 60400 nM | 28.9 µM | 25400 nM |  | 11500 nM |  |  |  | 
10 | C=C(C)[C@H]1CC2=C(C(=O)c3ccccc3C2=O)[C@H](OC)O1 (relative stereo) [BCH2148, (trans)-5,10-dioxo-3-isopropenyl-1-methoxy-3,4,5,10-tetrahydro-1H-naphtho-[2,3-c]-pyran] | 7500 nM | 9.93 µM | 12600 nM | 2360 nM |  |  |  |  | 
11 | COC1OC(C(=O)NCCN2CCOCC2)=CC2=C1C(=O)c1ccccc1C2=O (stereo not shown) [BCH2171, 1-methoxy-3-[2-(N-morpholine)ethylaminocarbonyl]-5,10-dioxo-5,10-dihydro-1H-naphtho-[2,3-c]-pyran] |  |  |  |  |  | 398 nM | 0.422 to 0.44 µM |  | 
12 | CC(=O)[C@H]1CC2=C(C(=O)c3ccccc3C2=O)[C@H](O[C@H]2C[C@H](NC(=O)C(F)(F)F)[C@H](O)[C@H](C)O2)S1 [BCH2127, (1'S, 1R, 3R)-1-(3'-trifluoroacetamido-2',3',6'-trideoxy-L-lyxohexopyranose)-3-acetyl-5,10-dioxo-3,4,5,10-tetrahydro-1H-naphtho-[2,3-c]-thiopyran] | 2700 nM | 4.1 µM | 350 nM |  | 2000 nM |  |  |  | 
13 | COC(=O)C1=CC2=C(CO1)C(=O)c1ccccc1C2=O [BCH2830, 3-methoxy carbonyl-5,10-dioxo-5,10-dihydro-1H-naphtho-[2,3-c]-pyran] | 12500 nM |  | 7120 nM |  |  |  |  |  | 
14 | CC(=O)O[C@H]1[C@@H](I)[C@H](O[C@@H]2O[C@@H](C(C)=O)CC3=C2C(=O)c2ccccc2C3=O)O[C@@H](C)[C@H]1OC(C)=O [BCH1667, (1'S,1S,3R)-methyl-(1-[2',6'-dideoxy-3',4'-diacetoxy-2'-iodo-L-lyxohexopyranose]-5,10-dioxo-3,4,5,10-tetrahydronaphtho[2,3-c]-pyran-3-yl) ketone] | 1.6 nM | 0.0893 µM | 12.2 nM |  | 13.3 nM |  |  |  | 
15 | CC(C)OC(=O)[C@@H]1CC2=C(C(=O)c3ccccc3C2=O)[C@@H](O[C@H]2C[C@H](NC(=O)C(F)(F)F)[C@H](O)[C@H](C)O2)O1 [BCH2122, (1'S, 1R, 3S)-5,10-dioxo-3-isopropoxycarbonyl-1-(2',3',6'-trideoxy-3'-trifluoroacetamido-L-lyxohexopyranose)-3,4,5,10-tetrahydro-1H-naphtho-[2,3-c]-pyran] | 640 nM | 2 µM | 370 nM |  | 730 nM |  |  |  | 
16 | CC(=O)O[C@@H]1[C@H](C)O[C@@H](OC2OC(C(C)=O)CC3=C2C(=O)c2ccccc2C3=O)C[C@@H]1OC(C)=O (mixture of isomers) [BCH2118, (1'S,1S,3R) and (1'S,1R,3S)-methyl-(1-[dideoxy-2',6'-diacetoxy-3',4'-L-lyxohexopyranose]-5,10-dioxo-3,4,5,10-tetrahydronaphtho-[2,3-c]-pyran-3-yl) ketone] | 203 nM |  | 120 nM | 244 nM |  |  |  |  | 
17 | CC(=O)O[C@H]1[C@@H](I)[C@H](O[C@H]2O[C@H](C(C)=O)CC3=C2C(=O)c2ccccc2C3=O)O[C@@H](C)[C@H]1OC(C)=O [BCH1666, (1'S,1R,3S)-methyl-(1-[2',6'-dideoxy-3'-4'-diacetoxy-2'-iodo-L-lyxohexopyranose]-5,10-dioxo-3,4,5,10-tetrahydronaphtho[2,3-c]-pyran-3-yl) ketone] | 78.3 nM | 0.205 µM | 272 nM |  | 125 nM |  |  |  | 
18 | COC1OC(C(=O)NCCCN2CCCC2=O)=CC2=C1C(=O)c1ccccc1C2=O (stereo not shown) [BCH2166, 1-methoxy-3-(3-N-pyrrolidinomylpropylaminocarbonyl)-5,10-dioxo-5,10-dihydro-1H-naphtho-[2,3-c]-pyran] |  |  |  |  |  | 237 nM |  | 443 to 1200 nM | 140 to 181 nM
19 | CC(C)OC(=O)[C@H]1CC2=C(C(=O)c3ccccc3C2=O)[C@H](O[C@H]2C[C@H](NC(=O)C(F)(F)F)[C@H](O)[C@H](C)O2)O1 [BCH2121] | 340 nM | 1.3 µM | 210 nM |  | 340 nM |  |  |  | 

From patent publication US5606037A, “Processes antineoplastic heteronaphthoquinones” (BioChem Pharma Inc., priority 1995, dated 1997)
